Laboratory results as given in BindingDB's records for patent US20250282794 (Curadev Pharma, 2025).

Target: Mitogen-activated protein kinase kinase kinase kinase 1 (Homo sapiens, UniProt Q92918)
Assay: HPK-1 biochemical enzyme assay
Method: Compound inhibitory potency was measured in an HPK-1 kinase inhibition assay. Briefly, recombinant full length HPK-1 enzyme (6.8 nM) was incubated with 10 μM ATP and 12.5 μM swine myelin basic protein (MBP) for 30 mins. at 25° C. in the presence of various concentrations of test compound or vehicle in 40 mM Tris.Cl pH7.4 buffer containing 20 mM MgCl2, 50 μM DTT and 0.1 mg/mL BSA. Reactions were quenched and reaction mixtures were then analyzed by an ADP-Glo kit which measures the formed ADP. The percent inhibition was calculated from the substrate conversion considering no enzyme control reactions for 100% inhibition and vehicle only reactions for 0% inhibition. The compounds were dissolved in DMSO and evaluated at 10 concentrations to determine an IC50 value.

Chain of Mitogen-activated protein kinase kinase kinase kinase 1 (Q92918 whole entry): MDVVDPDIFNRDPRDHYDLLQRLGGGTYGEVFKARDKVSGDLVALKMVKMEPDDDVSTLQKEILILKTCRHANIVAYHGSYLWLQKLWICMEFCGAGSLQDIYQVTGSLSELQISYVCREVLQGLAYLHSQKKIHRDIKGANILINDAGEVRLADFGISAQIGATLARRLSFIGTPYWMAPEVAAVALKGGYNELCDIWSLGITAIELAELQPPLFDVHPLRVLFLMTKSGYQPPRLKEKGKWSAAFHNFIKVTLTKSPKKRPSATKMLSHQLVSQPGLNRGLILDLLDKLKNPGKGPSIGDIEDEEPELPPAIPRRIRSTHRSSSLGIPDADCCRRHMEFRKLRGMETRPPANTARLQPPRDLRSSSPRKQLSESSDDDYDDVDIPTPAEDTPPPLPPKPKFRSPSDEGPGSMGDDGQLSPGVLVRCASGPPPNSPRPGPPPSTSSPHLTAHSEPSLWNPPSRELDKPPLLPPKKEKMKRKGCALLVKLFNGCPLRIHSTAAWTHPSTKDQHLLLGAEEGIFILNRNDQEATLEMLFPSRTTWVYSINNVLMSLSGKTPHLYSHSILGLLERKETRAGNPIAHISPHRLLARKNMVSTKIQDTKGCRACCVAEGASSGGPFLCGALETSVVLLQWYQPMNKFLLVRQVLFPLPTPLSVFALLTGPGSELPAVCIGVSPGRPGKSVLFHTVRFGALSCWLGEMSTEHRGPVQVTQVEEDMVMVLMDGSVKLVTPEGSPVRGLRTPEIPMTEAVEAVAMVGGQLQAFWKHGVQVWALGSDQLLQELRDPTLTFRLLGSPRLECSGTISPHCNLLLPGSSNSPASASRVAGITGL

| SMILES | IC50 [nM] |
| --- | --- |
| COCCN1CCN(c2ccc(NC(=O)c3c(Nc4cnc5c(c4C)NCCO5)cc[nH]c3=O)cc2F)CC1 [US20250282794, Example 194] | < 10 |
| COCCN1CCN(c2ccc(NC(=O)c3c(Nc4cnc5c(c4C)NCCO5)cc[nH]c3=O)cc2C)CC1 [US20250282794, Example 275] | < 10 |
| COCCCN1CCN(c2ccc(NC(=O)c3c(Nc4cnc5c(c4C)NCCO5)cc[nH]c3=O)cc2)CC1 [US20250282794, Example 277] | < 10 |
| Cc1c(Nc2cc[nH]c(=O)c2C(=O)Nc2ccc(N3CCC(O)CC3)cc2)cnc2c1NCCO2 [US20250282794, Example 278] | < 10 |
| Cc1c(Nc2cc[nH]c(=O)c2C(=O)Nc2ccc(C3CCN(C(C)C)CC3)cc2)cnc2c1NCCO2 [US20250282794, Example 279] | < 10 |
| Cc1c(Nc2cc[nH]c(=O)c2C(=O)Nc2ccc(N3CCN(c4ccccn4)CC3)cc2)cnc2c1NCCO2 [US20250282794, Example 289] | < 10 |
| Cc1c(Nc2cc[nH]c(=O)c2C(=O)Nc2ccc(N3CCN(C4CCCC4)CC3)c(N)c2)cnc2c1NCCO2 [US20250282794, Example 311] | < 10 |
| Cc1c(Nc2cc[nH]c(=O)c2C(=O)Nc2ccc(N3CCN(C(=O)C4CCC4)CC3)cc2)cnc2c1NCCO2 [US20250282794, Example 314] | < 10 |
| Cc1c(Nc2cc[nH]c(=O)c2C(=O)Nc2ccc(-c3ccccc3)cc2)cnc2c1NCCO2 [US20250282794, Example 331] | 10 to 100 |
| Cc1c(Nc2cc[nH]c(=O)c2C(=O)Nc2ccc(N3CCC(O)(CN(C)C)CC3)c(F)c2)cnc2c1NCC(C)O2 (stereo unspecified) [US20250282794, Example 388] | < 10 |
| Cc1c(Nc2cc[nH]c(=O)c2C(=O)Nc2ccc(N3CCN(C)CC3)c(CN)c2)cnc2c1NCCO2 [US20250282794, Example 393] | < 10 |
